Residues, ends and D or L forms follow the SMILES beside them. *: point of attachment. 5FAM = O=C1OC2(c3ccc(O)cc3Oc3cc(O)ccc32)c2ccc(C(=O)*)cc21
Assays:
[1] = test system: Jurkat cells; assay: Cell entry in cells lacking caveolin-mediated endocytosis; type: cell-based; settings: cells reported to lack caveolin-mediated endocytotic activity; data not shown
Excerpt: Chinese hamster ovary (CHO) A745 cells lack proteoglycans in the plasma membrane, and this cell line has been used to determine whether proteoglycans are required for CPP entry. […] (Figure 3c and d). The cell-penetrating activity of CPP5s was also examined in Jurkat cells that are reported to lack caveolin-mediated endocytotic activity.

[2] = test system: HeLa cells; assay: FACS analysis of cell penetration of Fam-VPTLK versus medium concentration; type: cell-based; settings: 3 h, up to 1.6 mM in medium, triplicate samples
Protocol: For examination of the cell-penetrating activity of 5,6-carboxyfluorescein (Fam)-labeled CPP5 peptides (Fam-VPMLK, Fam-VPTLK), DAMI cells and HeLa cells (5.0×10^4 cells/mL) were incubated with different concentrations of Fam-labeled peptides for different time periods. Excess peptides were removed by extensive washing with Hanks’ buffered saline solution (HBSS) as previously reported and cellular entry of Fam-labeled peptides was analyzed using a fluorescence microscope (Nikon; TE200), a confocal scanning laser microscope (Leica; TCS SP2), and a FACS instrument (XL Aria), or a Coulter EPICS® XL-MCR.

[3] = test system: lysosomes of HeLa cells and DAMI cells; assay: Co-localization of Fam-VPTLK with lysosomes (LysoTracker red); type: cell-based; settings: Fam-VPTLK 50 μM and LysoTracker 100 nM, 1 h, 37 °C, microscopy
Excerpt: Lysosomes are known to contain molecules which have entered the cell through pinocytosis. To determine whether CPP5s use pinocytotic pathways for their cell entry, the localizations of Fam-labeled CPP5s and lysosomes (labeled by LysoTracker® Red) were compared. […] In contrast, FITC-labeled transferrin and LysoTracker-Red co-localized extensively, which is consistent with the understanding that transferrin enters cells through receptor-mediated endocytosis (Figure 2c).
Figure 2 Mechanism of cell entry of CPP5s. a and b. […] Microscopic analysis of the co-localization of Fam-VPTLK with lysosome-staining dye (LysoTracker™ red DND-99, L7528 Invitrogen). Hela cells (a) and DAMI cells (b) were incubated with Fam-VPTLK (50 μM) and LysoTracker (100 nM) for 1 h at 37 °C. c. FITC-labeled Transferin (FITC-Transferin) co-localized with lysosome. HeLa cells were incubaled with FITC-transferin (100 nM) and LysoTracker (100 nM) for 1 h at 37 °C. d. […] Cells were incubated with peptides for 1 h and the cellular fluorescence intensity was measured by fluorescence microscopy equipped with image analysis software (for Fam-labeled peptides) or FACS (for Tamra-labeled peptides) as described in Experimental Procedures. […] The results are shown as percentages of the fluorescence intensity of inhibitor-treated cells (the intensity of non-treated cells is designated as 100%). […]

[4] = test system: DAMI cells; assay: Cell-penetration activity of Fam-labeled CPP5s, cellular fluorescence by FACS and/or microscopy; type: cell-based, human; design: key to Cell Penetration, cell entry confirmed by microscopy only: Cell entry of some peptides was confirmed by microscopy only, and these peptides are indicated with a ‘+’ without a percentage value; settings: peptides Fam-labeled on the N-terminus, 200 μM, 3 h, 37 °C; for Cell Penetration, cell entry confirmed by microscopy only: intracellular fluorescent signal by microscopy, no comparison with KLPVM; for Cell Penetration (%), percentage of the activity of KLPVM: fluorescence intensity of cells by FACS, mean of triplicate samples
Protocol: Figure 1 Cell-penetration activity of CPP5s. a. List of cell-penetrating penta-peptides (CPP5s). […] Peptide sequences are color-coded to show the constant amphipathic amino acid arrangement in each CPP5. Cell-penetration activity was determined by fluorescence intensity of cells (DAMI cells: a human megakaryocytic cancer cell line) incubated with fluorescein (Fam)-labeled peptides (200 μM) for 3 h at 37 °C as described in Experimental Procedures. Fam was labeled on the N-terminus of all peptides examined. Cells were analyzed by FACS and/or microscopy. The activity of each peptide is shown as a percentage of the activity of KLPVM. Each value represents the mean of triplicate samples. Cell entry of some peptides was confirmed by microscopy only, and these peptides are indicated with a ‘+’ without a percentage value. For cytoprotective activity (right column), the information is based on previous studies and the activity was determined by the protection of cells from Bax overexpression and other apoptotic stimuli such as etoposide treatment. b to e. Cell entry of Fam-labeled VPTLK, KLPVM, TAT, and poly-arginine (R8). HeLa cells were incubated with Fam-labeled VPTLK, KLPVM (200 μM), Fam-TAT (10 μM), and Fam-R8 (10 μM) for 1 h at 37 °C. Images are at 20× magnification. f. Comparison of the cytotoxicity of CPP5 and TAT. Primary cultured mouse embryonic fibroblast (MEF) cells were treated with various concentrations of peptides for 24 h as indicated. Then, apoptosis was analyzed as described in Experimental Procedures. Each bar represents the mean of triplicate samples and standard error. TEXT PRINTED IN THE PICTURE: (a) VPMLK: Cell Penetration (%): 97 ± 4.3; Cytoprotection: + | (a) VPTLK: Cell Penetration (%): 61 ± 1.7; Cytoprotection: + | (a) VPALR: Cell Penetration (%): 79 ± 1.5; Cytoprotection: + | (a) VSALK: Cell Penetration (%): 90 ± 3; Cytoprotection: N.D. | (a) PMLKE: Cell Penetration (%): 65 ± 3.7; Cytoprotection: + | (a) VPALK: Cell Penetration (%): 71 ± 2.2; Cytoprotection: + | (a) VSLKK: Cell Penetration (%): +; Cytoprotection: - | (a) VSGKK: Cell Penetration (%): +; Cytoprotection: - | (a) KLPVM: Cell Penetration (%): 100 ± 2.3; Cytoprotection: - | (a) IPMIK: Cell Penetration (%): 47 ± 1.4; Cytoprotection: - | (a) KLGVM: Cell Penetration (%): +; Cytoprotection: - | (a) KLPVT: Cell Penetration (%): +; Cytoprotection: - | (a) VPMIK: Cell Penetration (%): +; Cytoprotection: N.D. | (a) IPALK: Cell Penetration (%): +; Cytoprotection: N.D. | (a) IPMLK: Cell Penetration (%): +; Cytoprotection: N.D. | (a) VPTLQ: Cell Penetration (%): 70 ± 4; Cytoprotection: - | (a) QLPVM: Cell Penetration (%): +; Cytoprotection: - | (a) ELPVM: Cell Penetration (%): +; Cytoprotection: - | (a) VPTLE: Cell Penetration (%): 80 ± 1.9; Cytoprotection: N.D.
CPP5s that were designed based on the Bax-binding domain of Ku70 of several species are named Bax-Inhibiting Peptides (BIPs); they are VPMLK, PMLKE, VPTLK, VPALR, and VPALK. VPMLK and PMLKE were designed from human Ku70, and the same sequence exists in the Ku70 homologues of dog and monkey. VPTLK and VPALR are based on mouse and rat Ku70, respectively. VPALK was designed from cattle Ku70, and the same sequence exists in Ku70 of the African clawed frog. Cytoprotective activities of these BIPs have been previously reported, both in cell culture and animal models. […] The observed variation in cell-entering activity of Fam-labeled-CPP5s is shown in Figure 1a as a percentage of the activity of KLPVM. In all cases, Fam was attached to the N-terminal amino acid. For some CPP5s, cell-penetration activity was confirmed by detection of an intracellular fluorescent signal by microscopy. These latter results are indicated with ‘+’ symbols, and a quantitative comparison with the activity of KLPVM was not performed. […]

[5] = test system: Primary cultured mouse embryonic fibroblast (MEF) cells; assay: Cytotoxicity (apoptosis, Hoechst nuclear staining) of CPP5 and TAT; type: cell-based
Protocol: List of cell-penetrating penta-peptides (CPP5s). […] Peptide sequences are color-coded to show the constant amphipathic amino acid arrangement in each CPP5. […] Fam was labeled on the N-terminus of all peptides examined. Cells were analyzed by FACS and/or microscopy. The activity of each peptide is shown as a percentage of the activity of KLPVM. Each value represents the mean of triplicate samples. Cell entry of some peptides was confirmed by microscopy only, and these peptides are indicated with a '+' without a percentage value. For cytoprotective activity (right column), the information is based on previous studies and the activity was determined by the protection of cells from Bax overexpression and other apoptotic stimuli such as etoposide treatment. b to e. Cell entry of Fam-labeled […], and poly-arginine (R8). […] Comparison of the cytotoxicity of CPP5 and TAT. Primary cultured mouse embryonic fibroblast (MEF) cells were treated with various concentrations of peptides for 24 h as indicated. Then, apoptosis was analyzed as described in Experimental Procedures. Each bar represents the mean of triplicate samples and standard error.

[6] = test system: HeLa cells; assay: Effect of pinocytosis and endocytosis inhibitors on cell entry of Fam- or Tamra-labeled peptides; type: cell-based; settings: serum-free DMEM, cytochalasin D 10 µM 30 min pre-treatment, then Tamra-labeled peptide 1 h, VPTLK 30 μM, R8 10 μM, FACS, mean of three experiments and standard error
Protocol: HeLa cells were incubated with each inhibitor in serum-free DMEM for 30 min, followed by incubation for 1 h with Fam-labeled CPP5 peptides (30 μM). Then, the cells were extensively washed with Hanks’ Buffered Salt Solution (HBSS) and complete DMEM, prior to the detection of fluorescence by microscopy and FACS. None of amiloride, chlorpromazine, cytochalasin D, Filipin III, nocodazole and methyl-beta-cyclodextrin blocked the entry of Fam-labeled VPTLK and KLPVM into HeLa cells. […] As a control experiment to validate the effectiveness of these inhibitors, FITC-transferrin (for chlorpromazine) and rhodamine-labeled EGF (for cytochalasin D and amiloride) were used. […] To compare the cell-penetrating mechanism between CPP5s and arginine-rich CPPs, the uptake of TAT and R8 was also examined in the presence of these inhibitors.
Figure 2 Mechanism of cell entry of CPP5s. a and b. […] Cells were incubated with peptides for 1 h and the cellular fluorescence intensity was measured by fluorescence microscopy equipped with image analysis software (for Fam-labeled peptides) or FACS (for Tamra-labeled peptides) as described in Experimental Procedures. […] The results are shown as percentages of the fluorescence intensity of inhibitor-treated cells (the intensity of non-treated cells is designated as 100%). […]

| Cell Penetration, cell entry confirmed by microscopy only [4] | Cell Penetration (%), percentage of the activity of KLPVM [4] [%] | Compound | further results |
| --- | --- | --- | --- |
| – | – | CSCC[C@H](NC(=O)[C@@H](NC(=O)[C@@H]1CCCN1C(=O)[C@H](CC(C)C)NC(=O)[C@H](CCCCN)NC(=O)c1ccc2c(c1)C(=O)OC21c2ccc(O)cc2Oc2cc(O)ccc21)C(C)C)C(=O)O [Fam-KLPVM] (5FAM-KLPVM-OH) | Entry into Jurkat cells [1]: able to enter Jurkat cells |
| – | – | CC(C)C[C@H](NC(=O)[C@@H](NC(=O)[C@@H]1CCCN1C(=O)[C@@H](NC(=O)c1ccc2c(c1)C(=O)OC21c2ccc(O)cc2Oc2cc(O)ccc21)C(C)C)[C@@H](C)O)C(=O)N[C@@H](CCCCN)C(=O)O [Fam-VPTLK] (5FAM-VPTLK-OH) | Cell entry of Fam-VPTLK as a function of medium concentration [2]: linear increase up to the maximum concentration examined; Entry into Jurkat cells [1]: able to enter Jurkat cells; Co-localization with lysosomes [3]: partially co-localizes with lysosomes |
| + | – | ELPVM [cell-penetrating penta-peptide (CPP5)] | – |
| + | – | IPALK [cell-penetrating penta-peptide (CPP5)] | – |
| – | 47 ± 1.4 | IPMIK [cell-penetrating penta-peptide (CPP5)] | – |
| + | – | IPMLK [cell-penetrating penta-peptide (CPP5)] | – |
| + | – | KLGVM [cell-penetrating penta-peptide (CPP5)] | – |
| – | 100 ± 2.3 | KLPVM | Cytotoxic effect at 1.6 mM in the cell culture medium [5]: did not show significant cytotoxic effects |
| + | – | KLPVT [cell-penetrating penta-peptide (CPP5)] | – |
| – | 65 ± 3.7 | PMLKE | – |
| + | – | QLPVM [cell-penetrating penta-peptide (CPP5)] | – |
| – | – | Tamra-VPTLK [Tamra-labeled VPTLK] | Relative Fluorescence Intensity (No Inhibitor=100%), Cytochalasin D, Tamra-labeled peptides [6]: 57±4% |
| – | 71 ± 2.2 | VPALK | – |
| – | 79 ± 1.5 | VPALR | – |
| + | – | VPMIK [cell-penetrating penta-peptide (CPP5)] | – |
| – | 97 ± 4.3 | VPMLK | – |
| – | 80 ± 1.9 | VPTLE [cell-penetrating penta-peptide (CPP5)] | – |
| – | 70 ± 4 | VPTLQ [cell-penetrating penta-peptide (CPP5)] | – |
| – | 90 ± 3 | VSALK [cell-penetrating penta-peptide (CPP5)] | – |
| + | – | VSGKK [cell-penetrating penta-peptide (CPP5)] | – |
| + | – | VSLKK [cell-penetrating penta-peptide (CPP5)] | – |

Source: paper PMC3045100, “Cell-Penetrating Penta-Peptides (CPP5s): Measurement of Cell Entry and Protein-Transduction Activity” (Pharmaceuticals, 2010)
